Results published in patent US9170257B2 (priority 2012, dated 2015).
Like-named read-outs stand apart in the source and are kept apart here.

Experiment: Tissue distribution of curcumin and THC at necropsy 15 minutes post-infusion
Set-up: species or system Beagle dogs
Details: both sexes, beagle, dog, in vivo, 10 mg/kg; for Kp at 8 h: 8 hr infusion
Description: The test article will be administered to 8 Beagle dogs by intravenous infusion over two hours (Part A) or eight hours (Part B) as shown in Table 6.
Multiple samples of tissue weighing approximately 1 gram were removed and snap frozen in the presence or absence of phosphoric acid (H3PO4). For all tissue samples, the levels of curcumin and THC were determined using a method developed by the Bioanalytical Department at Nucro-Technics. […] Values that were below the limit of quantification were assigned a value of 0. […] Tissue distribution data was analyzed using, unless stated, the data from 4 dogs and are presented as the mean±standard error (S.E.).

Work on `COc1cc(CCC(=O)CC(=O)CCc2ccc(O)c(OC)c2)ccc1O` [THC, tetrahydrocurcumin] yielded a Kp at 8 h (H3PO4 stabilized, read-out: Kp [tissue]/[plasma], Striatum) of 0.03, a Kp at 8 h (H3PO4 stabilized, read-out: Kp [tissue]/[plasma], Urinary Bladder) of 0.0106 and a concentration at 15 min (Average tissue concentration, Intestinal wall, Eight hour infusion, H3PO4 stabilized) of 0.09 ng/g. For the same compound, the concentration at 15 min (Average tissue concentration, Intestinal wall, Two hour infusion, H3PO4 stabilized) was 2.11 ng/g, the concentration at 15 min (Eight hour infusion, H3PO4 stabilized, read-out: Average tissue concentration, Bladder) was 1.11 ng/g and the concentration at 15 min (Eight hour infusion, H3PO4 stabilized, read-out: Average tissue concentration, Brainstem) was 3.02 ng/g. For the same compound, the concentration at 15 min (Eight hour infusion, H3PO4 stabilized, read-out: Average tissue concentration, Cortex) was 0.49 ng/g, the concentration at 15 min (Eight hour infusion, H3PO4 stabilized, read-out: Average tissue concentration, Heart) was 0.03 ng/g and the concentration at 15 min (Eight hour infusion, H3PO4 stabilized, read-out: Average tissue concentration, Hippocampus) was 1.12 ng/g. For the same compound, the concentration at 15 min (Eight hour infusion, H3PO4 stabilized, read-out: Average tissue concentration, Kidney) was 2.03 ng/g, the concentration at 15 min (Eight hour infusion, H3PO4 stabilized, read-out: Average tissue concentration, Liver) was 2.24 ng/g and the concentration at 15 min (Eight hour infusion, H3PO4 stabilized, read-out: Average tissue concentration, Lung) was 6.36 ng/g. It also gave a concentration at 15 min (Eight hour infusion, H3PO4 stabilized, read-out: Average tissue concentration, Muscle) of 2.42 ng/g, a concentration at 15 min (Eight hour infusion, H3PO4 stabilized, read-out: Average tissue concentration, Pancreas) of 1.34 ng/g and a concentration at 15 min (Eight hour infusion, H3PO4 stabilized, read-out: Average tissue concentration, Spleen) of 0.42 ng/g. The concentration at 15 min (Eight hour infusion, H3PO4 stabilized, read-out: Average tissue concentration, Striatum) was 3.13 ng/g, the Kp at 2 h (Kp [tissue]/[plasma], Intestinal Wall, 2 hr infusion, H3PO4 stabilized) was 0.0003 and the Kp at 8 h (Kp [tissue]/[plasma], Intestinal Wall, H3PO4 stabilized) was 0.002. It also gave a concentration at 15 min (Table 14, 2 hour infusion, +H3PO4, read-out: Tissue analysis, Brainstem) of 10.6 ng/g, a concentration at 15 min (Table 14, 2 hour infusion, +H3PO4, read-out: Tissue analysis, Cortex) of 3.08 ng/g and a concentration at 15 min (Table 14, 2 hour infusion, +H3PO4, read-out: Tissue analysis, Hippocampus) of 6.46 ng/g. The concentration at 15 min (Table 14, 2 hour infusion, +H3PO4, read-out: Tissue analysis, Liver) was 4.58 ng/g, the concentration at 15 min (Table 14, 2 hour infusion, +H3PO4, read-out: Tissue analysis, Lung) was 9.37 ng/g and the concentration at 15 min (Table 14, 2 hour infusion, +H3PO4, read-out: Tissue analysis, Pancreas) was 0.91 ng/g. The concentration at 15 min (Table 14, 2 hour infusion, +H3PO4, read-out: Tissue analysis, Spleen) was 1.6 ng/g, the concentration at 15 min (Table 14, 2 hour infusion, +H3PO4, read-out: Tissue analysis, Striatum) was 11.1 ng/g and the concentration at 15 min (Table 14, 2 hour infusion, −H3PO4, read-out: Tissue analysis, Brainstem) was 2.33 ng/g. For the same compound, the concentration at 15 min (Table 14, 2 hour infusion, −H3PO4, read-out: Tissue analysis, Cortex) was 0.67 ng/g, the concentration at 15 min (Table 14, 2 hour infusion, −H3PO4, read-out: Tissue analysis, Hippocampus) was 0.75 ng/g and the concentration at 15 min (Table 14, 2 hour infusion, −H3PO4, read-out: Tissue analysis, Liver) was 2.41 ng/g. The concentration at 15 min (Table 14, 2 hour infusion, −H3PO4, read-out: Tissue analysis, Lung) was 17.7 ng/g, the concentration at 15 min (Table 14, 2 hour infusion, −H3PO4, read-out: Tissue analysis, Pancreas) was 2.01 ng/g and the concentration at 15 min (Table 14, 2 hour infusion, −H3PO4, read-out: Tissue analysis, Spleen) was 1.35 ng/g. It also gave a concentration at 15 min (Table 14, 2 hour infusion, −H3PO4, read-out: Tissue analysis, Striatum) of 6.21 ng/g, a concentration at 15 min (Table 15, 2 hour infusion, +H3PO4, read-out: Tissue analysis, Brainstem) of 3.02 ng/g and a concentration at 15 min (Table 15, 2 hour infusion, +H3PO4, read-out: Tissue analysis, Cortex) of 0.49 ng/g. The concentration at 15 min (Table 15, 2 hour infusion, +H3PO4, read-out: Tissue analysis, Hippocampus) was 1.12 ng/g, the concentration at 15 min post-infusion (Table 15, 2 hour infusion, +H3PO4, read-out: Tissue analysis, Liver) was 2.24 ng/g and the concentration at 15 min (Table 15, 2 hour infusion, +H3PO4, read-out: Tissue analysis, Lung) was 6.36 ng/g. It also gave a concentration at 15 min (Table 15, 2 hour infusion, +H3PO4, read-out: Tissue analysis, Pancreas) of 1.34 ng/g, a concentration at 15 min post-infusion (Table 15, 2 hour infusion, +H3PO4, read-out: Tissue analysis, Spleen) of 0.42 ng/g and a concentration at 15 min (Table 15, 2 hour infusion, +H3PO4, read-out: Tissue analysis, Striatum) of 3.13 ng/g. For the same compound, the concentration at 15 min (Table 15, 2 hour infusion, −H3PO4, read-out: Tissue analysis, Brainstem) was 0.83 ng/g, the concentration at 15 min (Table 15, 2 hour infusion, −H3PO4, read-out: Tissue analysis, Cortex) was 0.12 ng/g and the concentration at 15 min (Table 15, 2 hour infusion, −H3PO4, read-out: Tissue analysis, Hippocampus) was 0.01 ng/g. It also gave a concentration at 15 min post-infusion (Table 15, 2 hour infusion, −H3PO4, read-out: Tissue analysis, Liver) of 2.63 ng/g, a concentration at 15 min (Table 15, 2 hour infusion, −H3PO4, read-out: Tissue analysis, Lung) of 10.8 ng/g and a concentration at 15 min (Table 15, 2 hour infusion, −H3PO4, read-out: Tissue analysis, Pancreas) of 0.33 ng/g. It also gave a concentration at 15 min post-infusion (Table 15, 2 hour infusion, −H3PO4, read-out: Tissue analysis, Spleen) of 0.32 ng/g, a concentration at 15 min (Table 15, 2 hour infusion, −H3PO4, read-out: Tissue analysis, Striatum) of 1.12 ng/g and a concentration at 15 min (Tissue level, Intestinal Wall, 2 hour infusion, No H3PO4) of 0.73 ng/g. For the same compound, the concentration at 15 min (Tissue level, Intestinal Wall, 2 hour infusion, Plus H3PO4) was 2.12 ng/g, the concentration at 15 min (Tissue level, Intestinal Wall, 8 hour infusion, No H3PO4) was 0.31 ng/g and the concentration at 15 min (Tissue level, Intestinal Wall, 8 hour infusion, Plus H3PO4) was 0.21 ng/g. For the same compound, the concentration at 15 min (Two hour infusion, H3PO4 stabilized, read-out: Average tissue concentration, Bladder) was 2.25 ng/g, the concentration at 15 min (Two hour infusion, H3PO4 stabilized, read-out: Average tissue concentration, Brainstem) was 10.6 ng/g and the concentration at 15 min (Two hour infusion, H3PO4 stabilized, read-out: Average tissue concentration, Cortex) was 3.08 ng/g. For the same compound, the concentration at 15 min (Two hour infusion, H3PO4 stabilized, read-out: Average tissue concentration, Heart) was 0.68 ng/g, the concentration at 15 min (Two hour infusion, H3PO4 stabilized, read-out: Average tissue concentration, Hippocampus) was 6.46 ng/g and the concentration at 15 min (Two hour infusion, H3PO4 stabilized, read-out: Average tissue concentration, Kidney) was 4.25 ng/g. The concentration at 15 min (Two hour infusion, H3PO4 stabilized, read-out: Average tissue concentration, Liver) was 4.58 ng/g, the concentration at 15 min (Two hour infusion, H3PO4 stabilized, read-out: Average tissue concentration, Lung) was 9.37 ng/g and the concentration at 15 min (Two hour infusion, H3PO4 stabilized, read-out: Average tissue concentration, Muscle) was 4.19 ng/g. It also gave a concentration at 15 min (Two hour infusion, H3PO4 stabilized, read-out: Average tissue concentration, Pancreas) of 0.91 ng/g, a concentration at 15 min (Two hour infusion, H3PO4 stabilized, read-out: Average tissue concentration, Spleen) of 1.6 ng/g and a concentration at 15 min (Two hour infusion, H3PO4 stabilized, read-out: Average tissue concentration, Striatum) of 11.1 ng/g.
